The source of these data is patent US6869929B2, “Use of transcription factors for treating inflammation and other diseases” (Beth Israel Deaconess Medical Center, priority 2000, dated 2005).

Common to all, as to assay type: cell-based, human
The test system of experiment [1] is ESE-1. The experiment can be described thus: ESE-1 mRNA Northern blot in LB-12 osteoblasts. As to conditions: LB-12 cells. The method, then: U-87 Mg and U-138 Mg (human glioma), THP-1 (human monocytic), RAW 264.7 (murine monocytic), LB-12 (human osteoblast-like large T antigen transformed bone marrow stromal cells), and human chondrocytes were grown and treated with cytokines as described (Apperley, J., et al. 1990. J Bone Mineral Res. 5:S93; Goldring, M. B., et al. 1994. J Clin Invest 94:2307-16; Goldring, S. R., et al. 1983. J Bone Joint Surg 65:575-84; Libermann, T. A., et al. 1987. Embo J. 6:1627-1632).
Total RNA was harvested using QIAshreder (Qiagen) and RNeasy® Mini Kit (Quiagen) or Trizol (Gibco BRL). Poly A^+ RNA was prepared with MicroPoly(A) Pure (Ambion). Northern blots (5 μg total RNA) were hybridized using a full length ESE-1 cDNA probe as described (Oettgen, P., et al. et al. 1997, Mol Cell Biol 17:4419-33.).
Osteoblasts, the bone cells responsible for bone formation, represent another connective tissue cell target of inflammatory cytokines in joint disorders (Bogoch, E. R., and E. Moran. 1998, Can J Surg 41:264-71). […] LB-12 cells were incubated for different times in the absence or presence of IL-1β. […] Since the rapid, but transient induction of ESE-1 resembles that of immediate early genes, we tested the effect of the protein synthesis inhibitor cycloheximide which superinduces expression of certain genes due to mRNA stabilization. Cycloheximide alone had no effect, but superinduced IL-1β-mediated ESE-1 mRNA expression (FIG. 11d).

Experiment [2] concerns ESE-1. Nature of the experiment: ESE-1 mRNA time course in C-28/I2 chondrocytes. The settings on record: 10 μg/ml, absence or presence of IL-1β, up through 8 h. The method, then: The immortalized human chondrocyte cell lines T/C-28a2 and C-28/I2 (Goldring M B, et al., J Clin Invest 1994;94:2307-16) were cultured in Dulbecco's modified Eagle's medium (DMEM)/Ham's F12 (1/1, v/v; Life Technologies) containing 10% fetal calf serum (FCS; Biowhitaker) and passaged using trypsin-EDTA solution (Life Technologies) at >95% confluency every 5 to 6 days. The temperature-sensitive tsT/AC62 cells (Robbins J R, et al., Arthritis Rheum 2000;43:2189-201) were grown in DMEM/Ham's F12 (1/1, v/v) supplemented with 10% FCS, 10 IU/ml penicillin, 100 μg/ml streptomycin and maintained at 32° C. in 5% CO2 and the culture medium was changed every 3 to 4 days. The cells were grown to confluence and passaged by treatment with trypsin/EDTA as described previously (Robbins J R, et al., Arthritis Rheum 2000;43:2189-201). Suspensions of tsT/AC62 were embedded in alginate and cultured for X days. […]
We first examined the time course of ESE-1 expression at the mRNA level in the C-28/I2 human chondrocyte cell line after treatment with IL-1β for periods of time between 0.5 and 24 h (FIG. 17). In IL-1β-treated quiescent cultures, ESE-1 mRNA was detected at 30 min, increased to peak levels within 4 h, and declined gradually thereafter. […]

For a further experiment, the system named is COL2A1. The experiment can be described thus: COL2A1 mRNA time course in C-28/I2 chondrocytes. As to conditions: earlier time points.

Structures are written as SMILES.

For the molecule `C[C@@H]1C[C@@H]([C@H](O)CC2CC(=O)NC(=O)C2)C(=O)[C@@H](C)C1` [Cycloheximide, cycloheximide], the “IL-1β-mediated ESE-1 mRNA expression in presence of agent” value in the experiment with ESE-1 [1] is “superinduced”. Further, the “ESE-1 mRNA expression, agent alone” value in the experiment with ESE-1 [1] (1, 2, 6, 24 hours) is “had no effect”. In addition, in the experiment with ESE-1 [2], the “ESE-1 mRNA levels in presence of agent” value was “stabilized the levels of ESE-1 mRNA and augmented control and IL-1β-stimulated expression”. In the experiment on COL2A1, the “IL-1β inhibition of COL2A1 mRNA in presence of agent” value is “appeared to abolish this inhibition”.
